Test results taken from patent publication US20220142995A1, “DUAL ATM AND DNA-PK INHIBITORS FOR USE IN ANTI-TUMOR THERAPY” (XRAD Therapeutics, Inc., priority 2019, published 2022).
Counter-ions that a name gives are not always drawn.

Key:
[1] = target: T1, mTOR (Homo sapiens, UniProt P42345); assay: mTOR biochemical assay (LanthaScreen TR-FRET); details: ATP 3 μM, maximal concentration 100 nM
T1 construct: purchased ThermoFisher PR8683B
Description: mTOR Kinase reactions were performed in a 10 μL volume in low-volume 384-well plates. Typically, PerkinElmer model 6008260 plates were used. The composition of the 1× kinase reaction buffer was: 50 mM HEPES pH 7.5, 0.01% Tween 20, 1 mM EGTA, 10 mM MnCl2, and 2 mM DTT. The solution of mTOR enzyme (ThermoFisher, #PR8683B; the final mTOR concentration: 0.5 μg/mL) was added, and the compounds were serially diluted to the final maximal concentration of 100 nM (3 fold series dilution, a total of 10 doses). GFP-4E-BP1 (the final concentration: 0.4 μM) and the ATP solution (the final ATP concentration: 3 μM) were added to the 384-well plate. The plate was incubated at 25° C. for 1 hour, and 10 μL of the EDTA solution (20 mM) and Tb-labeled anti-p4E-BP1 antibody (4 nM) in TR-FRET dilution buffer were added to each well. The plate was sealed, incubated 30 min at 25° C., and read on a plate reader configured for LanthaScreen™ TRFRET.

[2] = target: T2, PI3Kα (Homo sapiens, UniProt P42336); assay: PI3Kα biochemical assay (ADP-Glo); details: first value of PI3K-α/δ cell; ATP 10 μM
T2 construct: purchased ThermoFisher PV4788
Description: (§1) PI3Kα and PI3Kδ Biochemical Assay:
(§2) PI3K[…] and PI3K[…] Kinase reactions were performed in a 5 μL volume in low-volume 384-well plates. Typically, PerkinElmer model 6008280 plates were used. The 1× kinase reaction buffer consisted of 50 mM HEPES pH 7.5, 3 mM MgCl2, 0.03% CHAPS, 1 mM EGTA, 100 mM NaCl, and 2 mM DTT. PI3K[…] (ThermoFisher, #PV4788; the final PI3K[…] concentration: 120 ng/mL) or PI3K[…] enzyme solution (ThermoFisher, #PV6451; the final PI3K[…] concentration: 250 ng/mL) was added to the plate, compounds were serially diluted to the final maximal concentration of 100 nM (3 fold series dilution, a total of 10 doses), and the PIP2:3PS (the final concentration: 10 µg/mL) and ATP solution (the final ATP concentration: 10 μM) was added to the 384-well plate. The plate was incubated at 25° C. for 1 hour. ADP-Glo reagent buffer (5 μL) was added to each well. The plate was sealed and incubated for 40 min at 25° C. ADP-Glo detection buffer (10 μL) was added to each well, and the plate was incubated for 40 min at 25° C. and read on a plate reader configured for Luminescence.

[3] = target: T3, PI3Kδ (Homo sapiens, UniProt O00329); assay: PI3Kδ biochemical assay (ADP-Glo); details: second value of PI3K-α/δ cell; ATP 10 μM
T3 construct: purchased ThermoFisher PV6451
Description: as §1, §2

[4] = system: MDA-MB-231 subcutaneous human xenograft; assay: In vivo tumor growth delay study, MDA-MB-231 subcutaneous human xenograft mouse model
Description: Tumor Studies. Female NCr nu/nu mice (Crl:NU(NCr)-Foxn1 nu, Strain 490) were obtained from Charles River at 5-6 weeks of age. All animal procedures used in these studies were approved by the Institutional Animal Care and Use Committee (IACUC) at Duke University.
FADU or MDA-MB-231 cells were harvested during log phase growth for in vivo implantation. The resuspended cells were washed three times in phosphate buffered saline (PBS) before preparing the working dilution in PBS. FADU cells were diluted to 1×10^7 cells/mL and MDA-MB-231 cells were diluted to 5×10^7 cells/mL. Each mouse was injected subcutaneously in the right flank with 100 μL of the cellular suspension. Tumor growth was monitored until the tumors reached a target volume of at least 100 mm^3, at which point mice were randomly stratified into four treatment groups.
Following implantation of the tumor cell lines, mice were monitored once weekly for tumor development. Upon detection, tumors were measured in two dimensions using digital calipers. Tumors were treated after reaching at least 100 mm^3 and were measured two to three times weekly following enrollment in one of the treatment groups. The study endpoint was defined as tumor quintupling from the volume at time of treatment.
The vehicle used in this study was 0.5% (Hydroxypropyl)methyl cellulose (HPMC) and 0.2% Tween80 dissolved in deionized water. The pH of the vehicle was adjusted to 7.0-8.0 and the vehicle was stored at 4° C. On each day of in vivo treatment an appropriate mass of test compound was added to the vehicle at room temperature. The mixture was vortexed as necessary to generate a final concentration of 1.6 mg/mL.
In vivo tumor growth delay study was performed as follows. Following implantation of the tumor cell lines, mice were monitored once weekly for tumor development. Upon development of a tumor measuring at least 100 mm^3, tumor-bearing mice were stratified to one of 4 groups, utilizing 5 mice per group. Tumor volumes were between 100 and 500 mm^3. Vehicle or compound 569 (10 mg/kg) were administered by oral gavage once daily for three consecutive days (qd×3), alone or in combination with focal radiation. The delivered volume of vehicle or compound 569 was adjusted based on body weight of the individual animals. […]
Statistical and Graphical Analysis of the in vivo data. […] In order to adjust for the differing tumor sizes at the start of treatment, the relative tumor volume was calculated by dividing the tumor volume at each time point by the volume at baseline. […] When an animal exited the study due to tumor quintupling, the final tumor volume recorded for the animal was included with the data used to calculate the median volume at subsequent time points. […]

T1 sequence (P42345 1360-2549 limits assumed): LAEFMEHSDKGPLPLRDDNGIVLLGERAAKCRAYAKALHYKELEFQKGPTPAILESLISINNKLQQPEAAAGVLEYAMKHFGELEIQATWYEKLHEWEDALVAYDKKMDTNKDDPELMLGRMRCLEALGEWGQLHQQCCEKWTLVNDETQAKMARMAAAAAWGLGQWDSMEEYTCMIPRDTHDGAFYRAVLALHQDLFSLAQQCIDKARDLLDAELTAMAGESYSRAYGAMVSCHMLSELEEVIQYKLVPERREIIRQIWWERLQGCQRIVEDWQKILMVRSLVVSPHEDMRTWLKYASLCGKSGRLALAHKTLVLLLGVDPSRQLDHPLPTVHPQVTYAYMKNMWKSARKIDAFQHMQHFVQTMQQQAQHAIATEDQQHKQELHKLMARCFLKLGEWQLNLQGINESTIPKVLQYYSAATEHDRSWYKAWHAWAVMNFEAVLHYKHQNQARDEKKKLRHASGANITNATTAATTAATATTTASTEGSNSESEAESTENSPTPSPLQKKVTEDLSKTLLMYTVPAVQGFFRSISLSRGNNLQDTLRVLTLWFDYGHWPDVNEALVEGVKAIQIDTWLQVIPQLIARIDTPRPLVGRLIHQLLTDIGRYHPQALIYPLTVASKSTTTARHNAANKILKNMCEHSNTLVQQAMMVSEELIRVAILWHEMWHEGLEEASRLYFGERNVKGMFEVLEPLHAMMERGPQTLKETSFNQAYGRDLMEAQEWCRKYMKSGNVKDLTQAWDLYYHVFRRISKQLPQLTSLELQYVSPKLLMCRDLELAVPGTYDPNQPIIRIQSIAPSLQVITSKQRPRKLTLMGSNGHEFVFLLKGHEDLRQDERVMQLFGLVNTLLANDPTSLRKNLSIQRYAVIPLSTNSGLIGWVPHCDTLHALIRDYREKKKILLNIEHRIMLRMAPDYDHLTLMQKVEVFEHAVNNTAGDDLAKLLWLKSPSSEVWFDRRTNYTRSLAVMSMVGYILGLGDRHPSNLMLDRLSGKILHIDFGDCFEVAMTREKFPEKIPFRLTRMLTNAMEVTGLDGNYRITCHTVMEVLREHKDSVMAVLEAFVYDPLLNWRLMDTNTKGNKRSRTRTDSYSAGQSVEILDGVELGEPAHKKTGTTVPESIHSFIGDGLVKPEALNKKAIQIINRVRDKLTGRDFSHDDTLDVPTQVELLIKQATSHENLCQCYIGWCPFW
T3 sequence (O00329 whole entry): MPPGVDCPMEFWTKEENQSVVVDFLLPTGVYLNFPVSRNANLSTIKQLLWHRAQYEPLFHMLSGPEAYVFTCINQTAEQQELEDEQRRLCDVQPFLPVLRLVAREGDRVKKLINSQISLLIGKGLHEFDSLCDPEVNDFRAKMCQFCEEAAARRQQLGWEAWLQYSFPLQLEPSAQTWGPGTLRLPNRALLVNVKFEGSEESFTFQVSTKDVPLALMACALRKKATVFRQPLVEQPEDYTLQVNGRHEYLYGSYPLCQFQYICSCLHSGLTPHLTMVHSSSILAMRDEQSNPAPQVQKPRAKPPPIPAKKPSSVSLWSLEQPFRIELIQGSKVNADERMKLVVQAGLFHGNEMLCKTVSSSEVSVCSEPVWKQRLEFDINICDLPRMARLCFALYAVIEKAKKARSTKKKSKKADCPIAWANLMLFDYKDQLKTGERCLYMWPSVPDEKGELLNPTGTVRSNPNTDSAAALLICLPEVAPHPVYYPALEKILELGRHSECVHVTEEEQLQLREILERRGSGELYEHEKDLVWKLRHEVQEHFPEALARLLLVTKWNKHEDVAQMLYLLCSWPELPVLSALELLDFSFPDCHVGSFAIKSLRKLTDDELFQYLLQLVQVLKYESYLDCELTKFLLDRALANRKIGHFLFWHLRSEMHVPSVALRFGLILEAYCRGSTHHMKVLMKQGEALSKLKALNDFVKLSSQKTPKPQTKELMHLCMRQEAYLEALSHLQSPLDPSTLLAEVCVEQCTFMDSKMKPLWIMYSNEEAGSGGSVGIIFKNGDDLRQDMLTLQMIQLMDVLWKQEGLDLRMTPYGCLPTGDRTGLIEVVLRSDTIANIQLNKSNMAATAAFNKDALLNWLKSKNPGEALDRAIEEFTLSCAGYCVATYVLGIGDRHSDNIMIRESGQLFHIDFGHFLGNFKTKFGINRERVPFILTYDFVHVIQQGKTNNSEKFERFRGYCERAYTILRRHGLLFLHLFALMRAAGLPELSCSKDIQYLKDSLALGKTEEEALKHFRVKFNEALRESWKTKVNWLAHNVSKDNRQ
T3 sequence (P27986 whole entry partner): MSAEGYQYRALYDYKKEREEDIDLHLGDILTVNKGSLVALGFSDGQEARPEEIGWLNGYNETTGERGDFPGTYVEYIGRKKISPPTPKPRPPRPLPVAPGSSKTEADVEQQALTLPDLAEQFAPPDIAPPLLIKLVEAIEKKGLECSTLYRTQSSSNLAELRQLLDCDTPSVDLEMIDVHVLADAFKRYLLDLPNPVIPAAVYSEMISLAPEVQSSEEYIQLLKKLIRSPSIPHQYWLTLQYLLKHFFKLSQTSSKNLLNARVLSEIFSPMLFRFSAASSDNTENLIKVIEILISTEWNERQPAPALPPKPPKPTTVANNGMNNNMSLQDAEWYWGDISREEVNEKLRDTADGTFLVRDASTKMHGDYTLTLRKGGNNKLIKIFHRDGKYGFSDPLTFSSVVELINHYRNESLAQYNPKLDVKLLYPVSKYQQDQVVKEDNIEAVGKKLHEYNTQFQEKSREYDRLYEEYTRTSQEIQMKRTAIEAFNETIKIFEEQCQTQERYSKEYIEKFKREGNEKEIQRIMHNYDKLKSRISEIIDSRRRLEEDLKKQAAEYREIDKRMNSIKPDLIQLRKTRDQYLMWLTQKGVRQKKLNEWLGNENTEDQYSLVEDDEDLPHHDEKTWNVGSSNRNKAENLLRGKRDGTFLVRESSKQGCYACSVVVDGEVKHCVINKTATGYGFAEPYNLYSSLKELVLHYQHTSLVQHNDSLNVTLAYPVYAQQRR
T2 sequence (P42336 whole entry): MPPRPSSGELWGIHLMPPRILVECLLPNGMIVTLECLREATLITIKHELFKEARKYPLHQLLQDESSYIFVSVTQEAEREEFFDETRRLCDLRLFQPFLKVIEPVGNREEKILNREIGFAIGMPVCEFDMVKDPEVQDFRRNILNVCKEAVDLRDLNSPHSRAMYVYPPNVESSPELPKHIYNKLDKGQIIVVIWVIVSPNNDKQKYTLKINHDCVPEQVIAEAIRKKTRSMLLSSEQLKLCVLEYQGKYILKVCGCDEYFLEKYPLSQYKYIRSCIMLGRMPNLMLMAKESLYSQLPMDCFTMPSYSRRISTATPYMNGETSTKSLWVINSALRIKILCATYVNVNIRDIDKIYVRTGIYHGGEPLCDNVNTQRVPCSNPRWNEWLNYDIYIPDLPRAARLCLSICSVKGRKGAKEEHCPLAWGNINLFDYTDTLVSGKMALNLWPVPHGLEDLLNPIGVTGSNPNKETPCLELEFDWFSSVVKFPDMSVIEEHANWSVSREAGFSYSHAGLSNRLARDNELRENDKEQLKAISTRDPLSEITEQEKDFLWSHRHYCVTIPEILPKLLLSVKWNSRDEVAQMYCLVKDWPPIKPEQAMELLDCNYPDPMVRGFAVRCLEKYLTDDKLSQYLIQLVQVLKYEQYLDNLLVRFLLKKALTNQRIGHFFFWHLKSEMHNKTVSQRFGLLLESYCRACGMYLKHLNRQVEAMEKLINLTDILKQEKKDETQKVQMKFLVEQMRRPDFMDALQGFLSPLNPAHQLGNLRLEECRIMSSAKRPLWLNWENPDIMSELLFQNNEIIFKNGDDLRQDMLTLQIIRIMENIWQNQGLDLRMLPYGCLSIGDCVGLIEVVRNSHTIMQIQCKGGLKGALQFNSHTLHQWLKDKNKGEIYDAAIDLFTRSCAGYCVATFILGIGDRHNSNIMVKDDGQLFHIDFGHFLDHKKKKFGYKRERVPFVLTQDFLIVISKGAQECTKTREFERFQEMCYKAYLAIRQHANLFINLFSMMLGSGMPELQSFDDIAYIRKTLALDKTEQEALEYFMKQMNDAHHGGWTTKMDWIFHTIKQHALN
T2 sequence (P27986 whole entry partner): as the sequence (P27986 whole entry partner) above

SMILES	IC50 [1]	IC50 [2]	IC50 [3]	tumor growth curves and quintupling-free survival ([4]; MDA-MB-231, Group 2 (10 mg/kg qd×3 alone) versus Group 1 (vehicle))	overall survival compared to Group 1, Group 2 and Group 3 ([4]; MDA-MB-231, Group 4: 10 mg/kg + 3 Gy qd×3, P<0.01, logrank)	animals found dead ([4]; MDA-MB-231, Group 4: 10 mg/kg + 3 Gy qd×3, unknown causes)	tolerability ([4]; MDA-MB-231-bearing mice, 10 mg/kg qd×3 alone or with 3 Gy)
CC(C)NCCOc1ncc(-c2cc3c4c(cnc3cc2F)N(C)C(=O)C42CCC2)cc1NS(C)(=O)=O [Compound 569, N-(5-(7′-Fluoro-3′-methyl-2′-oxo-2′,3′-dihydrospiro[cyclobutane-1,1′-pyrrolo[2,3-c]quinolin]-8′-yl)-2-(2-(isopropylamino)ethoxy)pyridin-3-yl)methanesulfonamide]		16 nM	73 nM	nearly identical to those for Group 1	significantly improved	One animal was found dead on Day 35	well-tolerated
CC(C)NCCOc1ncc(-c2cc3c(cc2F)ncc2c3[C@]3(C[C@H](OCc4ccccc4)C3)C(=O)N2C)cc1NS(C)(=O)=O [Compound 572, cis-N-(5-(3-(Benzyloxy)-7′-fluoro-3′-methyl-2′-oxo-2′,3′-dihydrospiro[cyclobutane-1,1′-pyrrolo[2,3-c]quinolin]-8′-yl)-2-(2-(isopropylamino)ethoxy)pyridin-3-yl)methanesulfonamide]	> 100 nM	23 nM	15 nM				
CC[C@H]1C[C@]2(C1)C(=O)N(C)c1cnc3cc(F)c(-c4cnc(OCCNC(C)C)c(NS(C)(=O)=O)c4)cc3c12 [Compound 573, cis-N-(5-(3-Ethyl-7′-fluoro-3′-methyl-2′-oxo-2′,3′-dihydrospiro[cyclobutane-1,1′-pyrrolo[2,3-c]quinolin]-8′-yl)-2-(2-(isopropylamino)ethoxy)pyridin-3-yl)methanesulfonamide]	> 100 nM	18 nM	12 nM				
CN1C(=O)C2(CCC2)c2c1cnc1ccc(-c3cnc(N4CC(N(C)C)C4)c(NS(C)(=O)=O)c3)cc21 [Compound 574, N-(2-(3-(Dimethylamino)azetidin-1-yl)-5-(3′-methyl-2′-oxo-2′,3′-dihydrospiro[cyclobutane-1,1′-pyrrolo[2,3-c]quinolin]-8′-yl)pyridin-3-yl)methanesulfonamide hydrochloride]	19.9 nM	0.12 nM	3 nM				

Now from value to molecule, other results behind:

IC50 [1]	IC50 [2]	IC50 [3]	SMILES	tumor growth curves and quintupling-free survival ([4]; MDA-MB-231, Group 2 (10 mg/kg qd×3 alone) versus Group 1 (vehicle))	overall survival compared to Group 1, Group 2 and Group 3 ([4]; MDA-MB-231, Group 4: 10 mg/kg + 3 Gy qd×3, P<0.01, logrank)	animals found dead ([4]; MDA-MB-231, Group 4: 10 mg/kg + 3 Gy qd×3, unknown causes)	tolerability ([4]; MDA-MB-231-bearing mice, 10 mg/kg qd×3 alone or with 3 Gy)
> 100 nM	> 100 nM	14 nM	CC[C@H]1C[C@@]2(C1)C(=O)N(C)c1cnc3cc(F)c(-c4cnc(OCCNC(C)C)c(NS(C)(=O)=O)c4)cc3c12 [Compound 566, trans-N-(5-(3-Ethyl-7′-fluoro-3′-methyl-2′-oxo-2′,3′-dihydrospiro[cyclobutane-1,1′-pyrrolo[2,3-c]quinolin]-8′-yl)-2-(2-(isopropylamino)ethoxy)pyridin-3-yl)methanesulfonamide]				
> 100 nM	> 100 nM	> 100 nM	CC(C)NCCOc1ncc(-c2cc3c(cc2F)ncc2c3[C@]3(C[C@@H](OCc4ccccc4)C3)C(=O)N2C)cc1NS(C)(=O)=O [Compound 567, trans-N-(5-(3-(Benzyloxy)-7′-fluoro-3′-methyl-2′-oxo-2′,3′-dihydrospiro[cyclobutane-1,1′-pyrrolo[2,3-c]quinolin]-8′-yl)-2-(2-(isopropylamino)ethoxy)pyridin-3-yl)methanesulfonamide]				
> 100 nM	18 nM	54 nM	CC(C)NCCOc1ncc(-c2cc3c4c(cnc3cc2F)N(C)C(=O)C42CCC2)cc1NS(=O)(=O)C(C)C [Compound 568, N-(5-(7′-Fluoro-3′-methyl-2′-oxo-2′,3′-dihydrospiro[cyclobutane-1,1′-pyrrolo[2,3-c]quinolin]-8′-yl)-2-(2-(isopropylamino)ethoxy)pyridin-3-yl)propane-2-sulfonamide]				
> 100 nM	21 nM	55 nM	CCS(=O)(=O)Nc1cc(-c2cc3c4c(cnc3cc2F)N(C)C(=O)C42CCC2)cnc1OCCNC(C)C [Compound 570, N-(5-(7′-Fluoro-3′-methyl-2′-oxo-2′,3′-dihydrospiro[cyclobutane-1,1′-pyrrolo[2,3-c]quinolin]-8′-yl)-2-(2-(isopropylamino)ethoxy)pyridin-3-yl)ethanesulfonamide]				
> 100 nM	62 nM		CC(C)NCCOc1ncc(-c2cc3c4c(cnc3cc2F)N(C)C(=O)C42CN(C(C)C)C2)cc1NS(C)(=O)=O [Compound 571, N-(5-(7′-Fluoro-1-isopropyl-3′-methyl-2′-oxo-2′,3′-dihydrospiro[azetidine-3,1′-pyrrolo[2,3-c]quinolin]-8′-yl)-2-(2-(isopropylamino)ethoxy)pyridin-3-yl)methanesulfonamide]				
